Results on 9 molecules are retold here after patent US9226929B2, “Pharmaceutically active disubstituted triazine derivatives” (Bayer Intellectual Property GMBH, priority 2011, dated 2016).

A word on the IC50: it is the point on the concentration scale where inhibition reaches its midpoint. As usually defined, the Kd is the concentration at which binding is half-saturated.

Experiment [1] has as its target T1, CDK1/CyclinB1 (Homo sapiens, UniProt P06493).
T1 construct: purchased Carna
In words: Lance Ultra KinaSelect Assay, CDK1. In kind it is biochemical. The conditions noted are these: ATP 20 μM; read-out: CDK1 LANCE assay (activity range), IC50. The protocol:
(§1) 2. Measurement of half maximal inhibitory concentration to CDKs This protocol describes how the Lance Ultra KinaSelect Assay was performed to determine half maximal inhibitory concentration (1050) of compounds of general formula (I) and CDK/Cyclin complexes. The principle behind this enzymatic assay is based upon the phosphorylation of the ULight-Peptide Substrat. It is detected by using a specific
(§2) EU-labeled anti-phospho peptide antibody. The binding of the Eu-labeled anti-phospho peptide antibody to the phosphorylated ULight labeled peptide gives rise to a FRET-signal. Binding of an inhibitor to the kinase prevents phosphorylation of the ULight-MBP Substrat, resulting in a loss of FRET.
(§3) The compounds of general formula (I) summarized in Table 5 were diluted from a 10 mM DMSO stock solution 1:10 in a total volume of 15 μL DMSO. This compound predilution was then serial diluted 1:3 over 8 steps in DMSO and briefly spun down. Each compound solution was now diluted 1:20 in Enzymatic Buffer (HEPES: 50 mM, pH: 7.5; MgCl2: 10 mM; EGTA: 1 mM; DTT: 2 mM; Tween-20: 0.01%), mixed thoroughly and spun down. For every sample, 2 μL of the diluted compound were mixed with 6 μL CDK/Cyclin/Substrat solution and 2 μL ATP solution in a well of a small volume 384 well plate (Corning Incorporated, Corning, N.Y., USA; order no. 3673). The CDK/Cyclin was diluted to the appropriate concentration (see Table 3) and the ATP concentration was adjusted to its […] for the CDK/Cyclin, which was 3 μM for CDK2/Cyclin A, 20 μM for CDK1/Cyclin B1, 25 μM for CDK7/Cyclin H and CDK9/Cyclin T1, 55 μM for CDK6/Cyclin D3, 90 μM for CDK4/Cyclin D1 and 125 μM for CDK9/Cyclin K. For negative controls, in each well 2 μL of DMSO solution (1% final DMSO assay concentration) was mixed with 6 μL substrate solution (50 nM ULight MBP final assay concentration) and 2 μL ATP solution (appropriate final concentration see Table 3). For positive controls, in each well 2 μL of DMSO solution (1% final DMSO assay concentration) was mixed with 6 μL CDK/Cyclin/Substrat (appropriate final concentration see Table 3) and 2 μL Tracer ATP solution (appropriate final concentration see Table 3). Positive and negative controls were calculated from at least 8 different sample wells. The 384 well plates were mixed in a Teleshaker plate mixer (Beckman Coulter, Brea, Calif., USA) at 2000 rpm for 40 sec, and incubated for 1 h at room temperature. Before reading, 10 μL the detection buffer (Lance Detection Buffer 1×; EDTA: […]; Eu-Anti-P-MBP: see Table 3) was added. The FRET signal was measured at 340 nm excitation, 665 nm and 615 nm emission (for the kinase tracer and LanthaScreen Eu-AB, respectively) with an Envision spectrophotometer (Perkin Elmer, Waltham, Mass., USA) with 50 μs delay and 300 μs integration time. IC50 values were determined from the sigmoidal dose response curves with the software Quattro Workflow (Quattro GmbH, Munich, Germany).

Experiment [2] has as its target T2, CDK9 (Homo sapiens, UniProt P50750).
T2 construct: purchased Invitrogen
In words: Lance Ultra KinaSelect Assay, CDK9. In kind it is biochemical. Conditions: cyclin partner (T1 or K) not stated; read-out: CDK9 LANCE assay (activity range), IC50. The protocol: as §1, §2, §3

Experiment [3] addresses T3, CDK7/CyclinH/MAT1 (Homo sapiens, UniProt P50613).
T3 construct: His; purchased Carna Biosciences
In words: Lance Ultra KinaSelect Assay, CDK7. In kind it is biochemical. The conditions noted are these: ATP 25 μM; read-out: CDK7 LANCE assay (activity range), IC50. The procedure:
as §1, §2, §3

In experiment [4] the target is T4, CDK4/CyclinD1 (Homo sapiens, UniProt P11802).
T4 construct: purchased Invitrogen
T4 sequence (P11802 whole entry): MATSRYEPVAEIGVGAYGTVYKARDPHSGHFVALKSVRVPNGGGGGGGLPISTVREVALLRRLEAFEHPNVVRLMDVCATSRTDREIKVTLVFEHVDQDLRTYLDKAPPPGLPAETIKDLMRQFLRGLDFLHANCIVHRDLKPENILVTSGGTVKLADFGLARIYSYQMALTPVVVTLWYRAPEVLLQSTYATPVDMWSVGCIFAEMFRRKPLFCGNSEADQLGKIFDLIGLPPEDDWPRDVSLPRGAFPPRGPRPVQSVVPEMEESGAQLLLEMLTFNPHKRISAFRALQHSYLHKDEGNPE
T4 sequence (P24385 whole entry partner): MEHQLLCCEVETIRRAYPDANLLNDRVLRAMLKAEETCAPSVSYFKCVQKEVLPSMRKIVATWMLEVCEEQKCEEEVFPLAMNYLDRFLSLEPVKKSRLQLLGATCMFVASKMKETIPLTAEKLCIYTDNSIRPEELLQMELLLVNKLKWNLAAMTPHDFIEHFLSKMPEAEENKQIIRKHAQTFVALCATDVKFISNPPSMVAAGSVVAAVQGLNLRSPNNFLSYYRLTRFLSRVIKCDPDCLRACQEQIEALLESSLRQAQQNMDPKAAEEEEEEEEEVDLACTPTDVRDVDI
In words: Lance Ultra KinaSelect Assay, CDK4. In kind it is biochemical. Conditions: ATP 90 μM; read-out: CDK4 LANCE assay (activity range), IC50. The protocol: as §1, §2, §3

Experiment [5] addresses T3, CDK7/CyclinH/MAT1. In words: LanthaScreen Eu Kinase Binding Assay, CDK7. The conditions noted are these: tracer 236, read-out: CDK7 (activity range), Kd. In a few lines: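 TR-FRET displacement of an Alexa Fluor 647 active-site tracer, detected with a Eu anti-GST antibody, over an 8-point 1:3 compound series. Tracer was set at its Kd (30 nM for CDK2/Cyclin A, CDK7 and CDK9/Cyclin T1; 35 nM for CDK9/Cyclin K). Read after 1 h at room temperature; Kd was fitted from sigmoidal curves.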
Background: Time-resolved FRET reads energy transfer from a long-lived donor to a nearby acceptor.

Molecules are shown by their SMILES.

T2 sequence (P50750 whole entry): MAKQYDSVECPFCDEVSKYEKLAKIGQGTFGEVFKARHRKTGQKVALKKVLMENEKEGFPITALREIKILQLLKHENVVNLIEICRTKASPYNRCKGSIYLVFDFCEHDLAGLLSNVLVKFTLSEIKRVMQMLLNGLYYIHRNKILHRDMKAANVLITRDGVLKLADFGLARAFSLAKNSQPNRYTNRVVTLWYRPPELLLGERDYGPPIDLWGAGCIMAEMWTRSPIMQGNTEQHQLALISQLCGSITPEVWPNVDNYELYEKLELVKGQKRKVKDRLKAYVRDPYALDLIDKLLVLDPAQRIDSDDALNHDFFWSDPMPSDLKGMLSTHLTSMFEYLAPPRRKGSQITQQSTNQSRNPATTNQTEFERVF
T3 sequence (P50613 whole entry): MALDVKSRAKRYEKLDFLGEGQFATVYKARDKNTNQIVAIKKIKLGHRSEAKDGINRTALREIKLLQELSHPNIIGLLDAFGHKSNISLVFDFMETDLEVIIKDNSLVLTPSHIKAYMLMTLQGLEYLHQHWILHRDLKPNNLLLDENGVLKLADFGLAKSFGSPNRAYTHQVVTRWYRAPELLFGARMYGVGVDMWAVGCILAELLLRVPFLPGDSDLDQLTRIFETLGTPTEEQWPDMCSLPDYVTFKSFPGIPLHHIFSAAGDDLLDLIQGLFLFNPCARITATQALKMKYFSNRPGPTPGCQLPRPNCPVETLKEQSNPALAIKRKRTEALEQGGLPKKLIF
T3 sequence (P51946 whole entry partner): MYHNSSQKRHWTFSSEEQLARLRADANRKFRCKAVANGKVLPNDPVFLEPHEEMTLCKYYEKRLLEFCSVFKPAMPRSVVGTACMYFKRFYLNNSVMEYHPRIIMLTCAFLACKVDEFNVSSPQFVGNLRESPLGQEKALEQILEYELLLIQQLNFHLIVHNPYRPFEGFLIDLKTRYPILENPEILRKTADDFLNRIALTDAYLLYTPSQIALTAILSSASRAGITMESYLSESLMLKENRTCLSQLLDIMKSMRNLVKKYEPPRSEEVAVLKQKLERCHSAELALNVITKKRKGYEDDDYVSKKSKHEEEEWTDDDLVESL
T3 sequence (P51948 whole entry partner): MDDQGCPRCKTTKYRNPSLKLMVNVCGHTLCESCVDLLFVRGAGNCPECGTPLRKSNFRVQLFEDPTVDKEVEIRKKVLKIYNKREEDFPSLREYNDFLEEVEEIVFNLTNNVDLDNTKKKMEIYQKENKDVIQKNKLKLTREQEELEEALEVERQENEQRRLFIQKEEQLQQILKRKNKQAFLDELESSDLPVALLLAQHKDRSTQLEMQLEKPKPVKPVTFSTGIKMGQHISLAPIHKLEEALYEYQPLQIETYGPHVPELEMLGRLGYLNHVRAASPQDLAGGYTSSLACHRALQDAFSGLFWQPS
T1 sequence (P06493 whole entry): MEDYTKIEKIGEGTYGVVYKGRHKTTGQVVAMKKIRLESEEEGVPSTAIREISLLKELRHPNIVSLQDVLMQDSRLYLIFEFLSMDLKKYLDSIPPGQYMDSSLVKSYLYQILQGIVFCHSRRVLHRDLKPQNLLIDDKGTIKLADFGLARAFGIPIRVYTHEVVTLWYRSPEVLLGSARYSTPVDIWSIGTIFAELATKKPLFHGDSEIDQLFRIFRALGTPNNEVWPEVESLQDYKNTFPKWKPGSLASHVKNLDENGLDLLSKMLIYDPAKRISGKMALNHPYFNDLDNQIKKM
T1 sequence (P14635 whole entry partner): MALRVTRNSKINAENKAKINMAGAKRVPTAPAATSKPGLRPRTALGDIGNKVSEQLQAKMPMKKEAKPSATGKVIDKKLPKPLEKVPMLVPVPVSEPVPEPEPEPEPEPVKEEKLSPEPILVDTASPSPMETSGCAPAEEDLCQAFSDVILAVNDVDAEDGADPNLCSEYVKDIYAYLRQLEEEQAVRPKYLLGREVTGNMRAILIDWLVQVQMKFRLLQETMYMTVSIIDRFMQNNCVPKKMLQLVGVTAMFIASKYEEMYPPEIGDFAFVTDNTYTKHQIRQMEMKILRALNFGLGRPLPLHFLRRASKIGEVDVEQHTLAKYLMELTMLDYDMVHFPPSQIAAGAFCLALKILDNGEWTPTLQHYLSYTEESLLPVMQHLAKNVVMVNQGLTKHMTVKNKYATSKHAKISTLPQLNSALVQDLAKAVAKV

With `NS(=O)(=O)Cc1cccc(Nc2ncnc(N3CCCC3c3ccccc3)n2)c1` (racemic) [Compound B33, rac-3-[(4-(2-Phenylpyrrolidin-1-yl)-1,3,5-triazin-2-yl)amino]-benzenemethanesulfonamide], the IC50 in experiment [1] is 1000 to 10000 nM; in experiment [2], 100 to 1000 nM; in experiment [3], over 10000 nM; in experiment [4] it was over 10000 nM. The Kd in experiment [5] is over 10000 nM.
Take `NS(=O)(=O)Cc1cccc(Nc2ncnc(N3CCc4ncsc4C3)n2)c1` [Compound B45, 3-[(4-(6,7-Dihydrothiazolo[5,4-c]pyridin-5(4H)-yl)-1,3,5-triazin-2-yl)amino]benzenemethanesulfonamide]: the IC50 in experiment [2] was under 100 nM; in experiment [3], 1000 to 10000 nM. Also, the Kd in experiment [5] lay within 1000 to 10000 nM.
Regarding `NS(=O)(=O)Cc1cccc(Nc2ncnc(N3CCCn4nccc43)n2)c1` [Compound B47, 3-[(4-(6,7-Dihydropyrazolo[1,5-a]pyrimidin-4(5H)-yl)-1,3,5-triazin-2-yl)amino]benzenemethanesulfonamide], the 50% inhibitory concentration (IC50) in experiment [1] was 100 to 1000 nM; in experiment [2], under 100 nM; in experiment [3], 1000 to 10000 nM; in experiment [4] it was 1000 to 10000 nM. Also, the Kd in experiment [5] was in the range of 100 to 1000 nM.
For `NS(=O)(=O)Cc1cccc(Nc2ncnc(N3CCc4nc[nH]c4C3)n2)c1` [Compound B44, 3-[(4-(6,7-Dihydro-3H-imidazo[4,5-c]pyridin-5(4H)-yl)-1,3,5-triazin-2-yl)amino]benzenemethanesulfonamide], the IC50 in experiment [2] is under 100 nM. Further, in experiment [5], the dissociation constant (Kd) fell in the range of 1000 to 10000 nM.
Take `NS(=O)(=O)Cc1cccc(Nc2ncnc(N3Cc4cn[nH]c4C3)n2)c1` [Compound B51, 3-[(4-(Pyrrolo[3,4-c]pyrazol-5(1H,4H,6H)-yl)-1,3,5-triazin-2-yl)amino]-benzenemethanesulfonamide]: the IC50 in experiment [1] was 1000 to 10000 nM; in experiment [2] it was under 100 nM; in experiment [3], over 10000 nM; in experiment [4], over 10000 nM. In addition, the Kd in experiment [5] was 1000 to 10000 nM.
Turning to `COC[C@H]1CCCN1c1ncnc(Nc2cccc(CS(N)(=O)=O)c2)n1` [Compound B17, (R)-3-[(4-(2-(Methoxymethyl)pyrrolidin-1-yl)-1,3,5-triazin-2-yl)amino]benzenemethanesulfonamide], the IC50 is 1000 to 10000 nM in experiment [1], 100 to 1000 nM in experiment [2], over 10000 nM in experiment [3] and over 10000 nM in experiment [4]. Further, the Kd in experiment [5] is over 10000 nM.
`NS(=O)(=O)Cc1cccc(Nc2ncnc(N3CCCCC3)n2)c1` [Compound B1, 3-[(4-(Piperidin-1-yl)-1,3,5-triazin-2-yl)amino]benzenemethane sulfonamide]: the IC50 in experiment [1] is over 10000 nM; in experiment [2] it was 1000 to 10000 nM; in experiment [3], over 10000 nM; in experiment [4], over 10000 nM. Further, the Kd in experiment [5] was over 10000 nM.
In the case of `COC(=O)[C@H]1CCCN1c1ncnc(Nc2cccc(CS(N)(=O)=O)c2)n1` [Compound B21, (R)-Methyl 1-[4-((3-(Sulfamoylmethyl)phenyl)amino)-1,3,5-triazin-2-yl]pyrrolidine-2-carboxylate], the IC50 in experiment [2] was in the range of 100 to 1000 nM. Moreover, the Kd in experiment [5] is over 10000 nM.
For the molecule `NS(=O)(=O)Cc1cccc(Nc2ncnc(N3CCc4ncccc4C3)n2)c1` [Compound B38, 3-[(4-(7,8-Dihydro-1,6-naphthyridin-6(5H)-yl)-1,3,5-triazin-2-yl)amino]-benzenemethanesulfonamide], the 50% inhibitory concentration (IC50) in experiment [1] was 100 to 1000 nM; in experiment [2], under 100 nM; in experiment [3], over 10000 nM; in experiment [4], over 10000 nM. In addition, the Kd in experiment [5] lay within 1000 to 10000 nM.
